Data: ChEMBL document CHEMBL3137667, “[Drug-induced liver injury; fourteenth updated edition of the bibliographic database of liver injuries and related drugs]” (Gastroenterol Clin Biol, 2004)

How the values were obtained:
[1] = Times to onset, minimal and maximal, observed in the indexed observations. [column 'DELAI' in source]; details: human
[2] = human
[3] = human; remark: listed apart in the source
[4] = human, serum, 4383 h
[5] = human; remark: listed apart in the source
[6] = human; remark: listed apart in the source
[7] = human; remark: listed apart in the source
[8] = human; remark: listed apart in the source
[9] = human; remark: listed apart in the source
[10] = human; remark: listed apart in the source
[11] = Highest frequency of moderate liver toxicity observed during clinical trials, expressed as a percentage. [column '% BIOL' in source]; details: human
[12] = human, serum
[13] = human; remark: listed apart in the source
[14] = Highest frequency of acute liver toxicity observed during clinical trials, expressed as a percentage. [column '% AIGUE' in source]; details: human
[15] = human, serum; remark: listed apart in the source
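For Hepatotoxicity (association with vascular disease) in this document: count of indexed literature references reporting vascular liver injury in humans, e.g. peliosis hepatitis, hepatic veno-occlusive disease or Budd-Chiari syndrome.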
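For Hepatotoxicity (benign tumour) in this document: value is a count of indexed literature references citing a benign tumour confirmed by histopathology.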
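For Hepatotoxicity (choleostasis) in this document: human cholestatic liver injury, shown by histopathology or by peak ALT or AST elevation over alkaline phosphatase ratio below 2, value counts indexed literature reports.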
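For Hepatotoxicity (chronic liver disease) in this document: chronic liver injury confirmed by histopathology or persistently raised serum aminotransferase activity beyond 6 months, value given as the count of indexed literature references.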
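For Hepatotoxicity (cirrhosis) in this document: value is a count of indexed literature references reporting cirrhosis confirmed by histopathology.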
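For Hepatotoxicity (cytolytic) in this document: human cytolytic liver injury, shown by histopathology or by a ratio above 5 of peak ALT or AST elevation to alkaline phosphatase elevation, value counts indexed references.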
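For Hepatotoxicity (granulomatous hepatitis) in this document: value is a count of indexed literature references reporting granulomatous liver disease confirmed by histopathology.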
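For Hepatotoxicity (malignant tumour) in this document: malignant tumour confirmed by histopathology, value gives the count of indexed literature references reporting it.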
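For Hepatotoxicity (severe hepatitis) in this document: human clinical data: severe hepatitis, meaning potentially life-threatening liver failure or clinically observed cases, the value counts how many indexed literature references report it.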
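For Hepatotoxicity (steatosis) in this document: steatosis confirmed by histopathology, value is the count of indexed references.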

Compound: COCc1c(C(C)C)nc(C(C)C)c(/C=C/[C@@H](O)C[C@@H](O)CC(=O)O)c1-c1ccc(F)cc1 [CERIVASTATIN]
- Hepatotoxicity (time to onset) [1]: 3 weeks
- Hepatotoxicity (cytolytic) [2]: 1
- Hepatotoxicity (choleostasis) [3]: 1
- Hepatotoxicity (chronic liver disease) [4]: 0
- Hepatotoxicity (cirrhosis) [5]: 0
- Hepatotoxicity (granulomatous hepatitis) [6]: 0
- Hepatotoxicity (association with vascular disease) [7]: 0
- Hepatotoxicity (steatosis) [8]: 0
- Hepatotoxicity (malignant tumour) [9]: 0
- Hepatotoxicity (benign tumour) [10]: 0

Compound: Cc1ccc(NC(=O)c2ccc(CN3CCN(C)CC3)cc2)cc1Nc1nccc(-c2cccnc2)n1 [IMATINIB]
- Hepatotoxicity (moderate) ([11]; Liver): 100%
- Hepatotoxicity (time to onset) [1]: 11 days - 12 days
- Hepatotoxicity (moderate) [12]: 5
- Hepatotoxicity (cytolytic) [2]: 1
- Hepatotoxicity (choleostasis) [3]: 0
- Hepatotoxicity (severe hepatitis) ([13]; Liver): 1
- Hepatotoxicity (chronic liver disease) [4]: 0
- Hepatotoxicity (cirrhosis) [5]: 0
- Hepatotoxicity (granulomatous hepatitis) [6]: 0
- Hepatotoxicity (association with vascular disease) [7]: 0
- Hepatotoxicity (steatosis) [8]: 0
- Hepatotoxicity (malignant tumour) [9]: 0
- Hepatotoxicity (benign tumour) [10]: 0

Compound: POLOXAMER
- Hepatotoxicity (moderate) [11]: 7.7%
- Hepatotoxicity (acute) [14]: 0%
- Hepatotoxicity (moderate) [12]: 1
- Hepatotoxicity (acute) [15]: 0
- Hepatotoxicity (cytolytic) [2]: 0
- Hepatotoxicity (choleostasis) [3]: 0
- Hepatotoxicity (severe hepatitis) [13]: 0
- Hepatotoxicity (chronic liver disease) [4]: 0
- Hepatotoxicity (cirrhosis) [5]: 0
- Hepatotoxicity (granulomatous hepatitis) [6]: 0
- Hepatotoxicity (association with vascular disease) [7]: 0
- Hepatotoxicity (steatosis) [8]: 0
- Hepatotoxicity (malignant tumour) [9]: 0
- Hepatotoxicity (benign tumour) [10]: 0

Compound: POVIDONE
- Hepatotoxicity (moderate) [11]: 0%
- Hepatotoxicity (acute) [14]: 0%
- Hepatotoxicity (moderate) [12]: 0
- Hepatotoxicity (acute) [15]: 0
- Hepatotoxicity (cytolytic) [2]: 0
- Hepatotoxicity (choleostasis) [3]: 0
- Hepatotoxicity (severe hepatitis) [13]: 0
- Hepatotoxicity (chronic liver disease) [4]: 0
- Hepatotoxicity (cirrhosis) [5]: 1
- Hepatotoxicity (granulomatous hepatitis) [6]: 0
- Hepatotoxicity (association with vascular disease) [7]: 0
- Hepatotoxicity (steatosis) [8]: 0
- Hepatotoxicity (malignant tumour) [9]: 0
- Hepatotoxicity (benign tumour) [10]: 0

Compound: REVIPARIN SODIUM
- Hepatotoxicity (moderate) [11]: 10.3%
- Hepatotoxicity (acute) [14]: 0%
- Hepatotoxicity (moderate) [12]: 1
- Hepatotoxicity (acute) [15]: 0
- Hepatotoxicity (cytolytic) [2]: 0
- Hepatotoxicity (choleostasis) [3]: 0
- Hepatotoxicity (severe hepatitis) [13]: 0
- Hepatotoxicity (chronic liver disease) [4]: 0
- Hepatotoxicity (cirrhosis) [5]: 0
- Hepatotoxicity (granulomatous hepatitis) [6]: 0
- Hepatotoxicity (association with vascular disease) [7]: 0
- Hepatotoxicity (steatosis) [8]: 0
- Hepatotoxicity (malignant tumour) [9]: 0
- Hepatotoxicity (benign tumour) [10]: 0

Compound: SODIUM NITROPRUSSIDE
- Hepatotoxicity (moderate) [11]: 41%
- Hepatotoxicity (acute) [14]: 0%
- Hepatotoxicity (moderate) [12]: 1
- Hepatotoxicity (acute) [15]: 0
- Hepatotoxicity (cytolytic) [2]: 0
- Hepatotoxicity (choleostasis) [3]: 0
- Hepatotoxicity (severe hepatitis) [13]: 0
- Hepatotoxicity (chronic liver disease) [4]: 0
- Hepatotoxicity (cirrhosis) [5]: 0
- Hepatotoxicity (granulomatous hepatitis) [6]: 0
- Hepatotoxicity (association with vascular disease) [7]: 0
- Hepatotoxicity (steatosis) [8]: 0
- Hepatotoxicity (malignant tumour) [9]: 0
- Hepatotoxicity (benign tumour) [10]: 0

Compound: TINZAPARIN SODIUM
- Hepatotoxicity (moderate) [11]: 35%
- Hepatotoxicity (acute) [14]: 0%
- Hepatotoxicity (moderate) [12]: 3
- Hepatotoxicity (acute) [15]: 0
- Hepatotoxicity (cytolytic) [2]: 0
- Hepatotoxicity (choleostasis) [3]: 0
- Hepatotoxicity (severe hepatitis) [13]: 0
- Hepatotoxicity (chronic liver disease) [4]: 0
- Hepatotoxicity (cirrhosis) [5]: 0
- Hepatotoxicity (granulomatous hepatitis) [6]: 0
- Hepatotoxicity (association with vascular disease) [7]: 0
- Hepatotoxicity (steatosis) [8]: 0
- Hepatotoxicity (malignant tumour) [9]: 0
- Hepatotoxicity (benign tumour) [10]: 0
